# According to patent publication US5753655A, “1-arylsulphonyl, arylcarbonyl and arylthiocarbonyl pyridazino derivatives and methods of preparation” (Ortho Pharmaceutical Corporation, priority 1996, dated 1998):
# Test system: TE85 human bone cells
# Assay: Bone cell proliferation (TE85 cells)
# Type: cell-based
# Settings: average at 5 concentrations
# Source text: A similar method was used to measure the effect of test compounds on TE85 human bone cells.
# Tables 2 and 3 show several examples of the invention with molecular formulas, melting points, and activity expressed as the average increase in bone cell proliferation at 5 concentrations (CP) or as the concentration of compound in nanomoles per liter (×10^-9 M) required to displace 50% of I^125 labeled vinyl nortestosterone (VNT) from the human bone progestin receptor (BPR) (IC50). If there is no value reported in the CP column that particular compound was not tested.
row,Compound,CP: average increase in bone cell proliferation at 5 concentrations
1,"O=C(c1ccc(Cl)c(Cl)c1)N1CCC2CCc3ccccc3C2=N1 (stereo not shown) [Example 6, 3-(3,4-dichlorobenzoyl)-3,4-diazo-1,2,3,9,10,10a-hexahydrophenanthrene]",115
2,"O=C(c1cc(Cl)cc(Cl)c1)N1CCC2CCCc3ccccc3C2=N1 (stereo not shown) [Example 7, 2-(3,5-dichlorobenzoyl)-3,4,4a,5,6,7-hexahydro-2H-benzo[6,7]cyclohepta[1,2c]pyridazine]",120
3,"O=C(c1ccc(Cl)c(Cl)c1)N1CCC2CCCc3ccccc3C2=N1 (stereo not shown) [Example 9, 2-(3,4-dichlorobenzoyl)-3,4,4a,5,6,7-hexahydro-2H-benzo[6,7]cyclohepta[1,2c]pyridazine]",123
4,"O=C(c1ccc(F)c(F)c1)N1CCC2CCc3ccccc3C2=N1 (stereo not shown) [Example 10, 3-(3,4-difluorobenzoyl)-3,4-diazo-1,2,3,9,10,10a-hexahydrophenanthrene]",112
5,"O=C(c1cc(Cl)cc(Cl)c1)N1CCC2CCc3ccccc3C2=N1 (stereo not shown) [Example 11, 3-(3,5-dichlorobenzoyl)-3,4-diazo-1,2,3,9,10,10a-hexahydrophenanthrene]",113
6,"O=C(c1ccc(Cl)c(Cl)c1)N1CCC2COc3ccccc3C2=N1 (stereo not shown) [Example 12, 3-(3,4-dichlorobenzoyl)-3,4-diazo-9-oxa-1,2,3,9,10,10a-hexahydrophenanthren]",107
7,"S=C(c1cc(Cl)cc(Cl)c1)N1CCC2CCCc3ccccc3C2=N1 (stereo not shown) [Example 15, 2-(3,5-dichlorothiobenzoyl)-3,4,4a,5,6,7-hexahydro-2H-benzo[6,7]cyclohepta[1,2c]pyridazine]",109
8,"Fc1ccc(C(=S)N2CCC3CCCc4ccccc4C3=N2)cc1F (stereo not shown) [Example 16, 2-(3,4-difluorothiobenzoyl)-3,4,4a,5,6,7-hexahydro-2H-benzo[6,7]cyclohepta[1,2c]pyridazine]",111
9,"S=C(c1ccc(Cl)c(Cl)c1)N1CCC2CCCc3ccccc3C2=N1 (stereo not shown) [Example 17, 2-(3,4-dichlorothiobenzoyl)-3,4,4a,5,6,7-hexahydro-2H-benzo[6,7]cyclohepta[1,2c]pyridazine]",115
10,"S=C(c1ccc(Cl)c(Cl)c1)N1CCC2CCc3ccccc3C2=N1 (stereo not shown) [Example 19, 3-(3,4-dichlorothiobenzoyl)-3,4-diazo-1,2,3,9,10,10a-hexahydrophenanthrene]",87
11,"S=C(c1cc(Cl)cc(Cl)c1)N1CCC2CCc3ccccc3C2=N1 (stereo not shown) [Example 20, 3-(3,5-dichlorothiobenzoyl)-3,4-diazo-1,2,3,9,10,10a-hexahydrophenanthrene]",103

# Target: T1, rabbit uterine cytosolic progestin receptor (PR) (Oryctolagus cuniculus, UniProt P06186)
# T1 construct: The high speed supernatant fraction is used as the receptor preparation; from tissue; host or cells: uterus of New Zealand rabbits, 200,000 G supernatant (cytosol)
# T1 sequence (P06186 1-930): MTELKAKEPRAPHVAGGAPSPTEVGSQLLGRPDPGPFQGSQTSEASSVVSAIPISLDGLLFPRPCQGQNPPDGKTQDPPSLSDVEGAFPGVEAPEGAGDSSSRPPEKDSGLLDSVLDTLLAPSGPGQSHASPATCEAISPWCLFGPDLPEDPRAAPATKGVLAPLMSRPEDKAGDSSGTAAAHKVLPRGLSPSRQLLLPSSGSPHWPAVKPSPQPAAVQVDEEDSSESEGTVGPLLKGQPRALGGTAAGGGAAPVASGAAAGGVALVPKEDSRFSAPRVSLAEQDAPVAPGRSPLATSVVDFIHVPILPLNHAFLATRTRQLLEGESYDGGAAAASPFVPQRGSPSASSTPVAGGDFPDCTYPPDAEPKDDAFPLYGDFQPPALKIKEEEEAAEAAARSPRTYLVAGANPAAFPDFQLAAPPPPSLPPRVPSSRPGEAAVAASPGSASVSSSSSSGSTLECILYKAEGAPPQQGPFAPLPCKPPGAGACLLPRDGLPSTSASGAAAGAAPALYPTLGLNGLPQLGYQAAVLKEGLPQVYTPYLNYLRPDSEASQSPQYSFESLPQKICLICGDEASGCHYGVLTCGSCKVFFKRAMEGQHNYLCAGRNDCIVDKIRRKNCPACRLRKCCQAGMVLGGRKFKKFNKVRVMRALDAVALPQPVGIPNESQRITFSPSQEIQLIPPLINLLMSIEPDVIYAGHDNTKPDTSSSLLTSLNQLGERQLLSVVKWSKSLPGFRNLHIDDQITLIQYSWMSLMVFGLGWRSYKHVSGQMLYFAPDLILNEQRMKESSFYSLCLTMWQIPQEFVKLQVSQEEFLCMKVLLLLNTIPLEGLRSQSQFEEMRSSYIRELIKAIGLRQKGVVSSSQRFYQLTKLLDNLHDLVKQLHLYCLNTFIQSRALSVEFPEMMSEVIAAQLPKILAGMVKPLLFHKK
# Assay: Progestin Receptor Binding: competitive displacement of 3H-R5020
# Design: species or system rabbit (New Zealand rabbits)
# Settings: rabbit uterine cytosol, 4° C., 18 h, read-out: PR: concentration required to displace 50% of H3 labeled R5020 (IC50)
# Procedure: Progestin Receptor Binding
# The procedure used is essentially that of J. L. McGuire, C. D. Bariso and A. P. Shroff in Biochemistry 13, 319 (1974).
# Uteri from New Zealand rabbits (1.5 to 2.5 kg) are placed in a cold buffer A (0.01M Tris-HCl, pH 8.0, 0.001M EDTA, 0.25M sucrose). The uteri are minced, washed and homogenized in cold buffer A. The homogenate (2 g wet tissue/mL buffer) is centrifuged at 200,000 G for 1 h at 4° C. The high speed supernatant fraction is used as the receptor preparation.
# A competitive binding assay is performed by mixing ^3 H-R5020 with the receptor preparation and adding a known amount of unlabelled compound. This mixture is incubated at 4° C. for 18 h. The compounds bound to the receptor are separated from those free in solution using dextran coated charcoal and the amount of isotope bound to the receptor is determined. A depression of 20% or greater from control isotope binding is considered significant.
# If there is no value reported in the T47D column that particular compound was not tested.
row,IC50 [nM],Compound
1,76,"O=S(=O)(c1ccc(I)cc1)N1CCC2CCCc3c(Br)cccc3C2=N1 (stereo not shown) [Example 1, 8-Bromo-3,4,4a,5,6,7-hexahydro-2-(4-iodobenzenesulfonyl)-2H-benzo[6,7]cyclohepta[1,2c]pyridazine]"
2,10,"O=S(=O)(c1ccc(I)cc1)N1CCC2CCc3c(Br)cccc3C2=N1 (stereo not shown) [Example 2, 8-Bromo-3,4-diazo-1,2,3,9,10,10a-hexahydro-3-(4-iodobenzenesulfonyl)phenanthrene]"
3,2.4,"O=S(=O)(c1ccc(I)cc1)N1CCC2CCc3c(ccc(Br)c3Br)C2=N1 (stereo not shown) [Example 3, 7,8-Dibromo-3,4-diazo-1,2,3,9,10,10a-hexahydro-3-(4-iodobenzenesulfonyl)phenanthrene]"
4,8.3,"O=S(=O)(c1ccc(I)cc1)N1CCC2CCc3cc(Cl)ccc3C2=N1 (stereo not shown) [Example 4, 7-Chloro-3,4-diazo-1,2,3,9,10,10a-hexahydro-3-(4-iodobenzenesulfonyl)phenanthrene]"
5,34,"O=S(=O)(c1cc(Cl)ccc1Cl)N1CCC2CCc3cc(Cl)ccc3C2=N1 (stereo not shown) [Example 5, 7-Chloro-3,4-diazo-1,2,3,9,10,10a-hexahydro-3-(2,5-dichlorobenzenesulfonyl)phenanthrene]"

# Test system: T47D human breast carcinoma cells
# Assay: Ex Vivo Progestational Test: 3H-thymidine incorporation into T47-D cells
# Type: cell-based
# Settings: T47D, antagonist, printed with - sign, R5020 (promegestone) induced proliferation, read-out: T47D: antagonist EC50 against R5020 induced proliferation
# Procedure: Ex Vivo Progestational Test
# The incorporation of ^3 H-thymidine into T47-D cells was used to test the effect of compounds on T47-D cell proliferation.
# T47-D (human breast line) was used employing standard sterile techniques. Cells were maintained in RPMI 1640 medium supplemented with fetal bovine serum (10%) and insulin (0.2 I.U./ml). Cells were trypsinized and passaged using standard procedures.
# Cells were plated in 96-well microtiter plates by incubation in RPMI medium (phenol red-free, insulin-free, 5% charcoal treated fetal bovine serum) at 37° C. in an atmosphere of 95% air/5% CO2. Approximately 48 hours later, spent medium was replaced by fresh medium containing test compounds dissolved in DMSO (0.1% final concentration) and the cells were incubated for approximately 22 hours. ^3 H-Thymidine was added and the incubation allowed to proceed for another 4 hours. The test was then stopped with the addition of excess unlabeled thymidine. Cells were washed free of soluble thymidine, trypsinized and harvested by standard procedures. The amount of ^3 H-thymidine incorporated into DNA was determined by liquid scintillation counting. The primary standards were promegestone, a potent synthetic progestin and RU486, an antiprogestin. Test compounds were generally screened at concentrations ranging from 0.1 to 1000 nM. A compound was considered active if it stimulated or inhibited thymidine incorporation. Results were expressed as the concentration of test compounds needed to increase proliferation 2 times over control (SC200) or the concentration needed to inhibit promegestone induced proliferation by 50% (EC50). A value less than 1000 nM was considered active.
# Aspects of the application of the procedure used are described in the following: C. Christensen, D. Gunter, D. Saunders and V. Malviya, Gynecol. Oncol., 28, 25 (1987); J. Puzas, R. Drivdahl, G. Howard and D. Baylink, Proc. Soc. Exp. Biol. Med., 166, 113 (1981); and I. Keydar, L. Chen, S. Karby, F. Weiss, J. Delarea, M. Raduy, S. Chaitcik and H. Brenner, Eur. J. Cancer, 15, 659 (1979). […]
row,EC50 [nM],Compound
1,654,"O=S(=O)(c1ccc(I)cc1)N1CCC2CCc3cc(Cl)ccc3C2=N1 (stereo not shown) [Example 4, 7-Chloro-3,4-diazo-1,2,3,9,10,10a-hexahydro-3-(4-iodobenzenesulfonyl)phenanthrene]"
2,495,"O=S(=O)(c1cc(Cl)ccc1Cl)N1CCC2CCc3cc(Cl)ccc3C2=N1 (stereo not shown) [Example 5, 7-Chloro-3,4-diazo-1,2,3,9,10,10a-hexahydro-3-(2,5-dichlorobenzenesulfonyl)phenanthrene]"

# Same assay, conditions: agonist, printed with + sign, T47D proliferation, 3H-thymidine, read-out: T47D: agonist SC200 (concentration stimulating 2fold above control)
row,Compound,EC (2-fold above control) [µM]
1,"O=S(=O)(c1ccc(I)cc1)N1CCC2CCc3c(ccc(Br)c3Br)C2=N1 (stereo not shown) [Example 3, 7,8-Dibromo-3,4-diazo-1,2,3,9,10,10a-hexahydro-3-(4-iodobenzenesulfonyl)phenanthrene]",0.337
